In US10449208B2, “Antiviral prodrugs of tenofovir” (Merck Sharp & Dohme Corp., priority 2016, dated 2019):
Like-named read-outs stand apart in the source and are kept apart here.

Legend:
[1] = Prodrug stability assay in bio-relevant media (FaSSIF with Pancreatin, simulated gastrointestinal tract conditions); type: in vitro ADME; settings: % parent prodrug remaining at 5 h vs 0 h, 37° C., 0.5 mg/mL Pancreatin in FaSSIF, HPLC area ratio
Method: Prodrug Stability Assay in Bio-Relevant Media
The following assay was employed to evaluate the stability of the prodrugs in simulated gastrointestinal tract conditions. Preparation of fasted state simulated intestinal fluid (FaSSIF) using Phares SIF Powder was carried out according to protocols from Phare Drug Delivery AG (Baselland, Switzerland). For sample preparation, 10 μL stock solutions (10 mM) of prodrug substance in DMSO was added to 990 μL of 0.5 mg/mL Pancreatin solution (Fisher CAS#8049-47-6) in FaSSIF. Two samples were prepared for each compound at initial. If the sample was clear solution at the beginning, ran one sample directly as initial by HPLC; if the sample was not clear at starting, diluted the sample by 100% ACN. Put the other sample under 37° C. and observed the sample at 5 h time-point. At 5 h time point, if the sample was clear solution then performed HPLC analysis directly; if it was not clear solution, diluted the sample by 100% ACN and assayed by HPLC. All the samples were vortexed for 3 min and observed before injection. For the diluted samples, the area will be multiplied by a factor when data analysis. The analysis was carried out with an Agilent 1100 series HPLC with autosampler. The column was usually a Poroshell 120 EC -C18, 4.6×50 mm, 2.7 μm. The flow rate was 1.8 mL/min, and the injection volume was 5 or 10 μL. UV detection was in the range 210-400 nm. The mobile phase consisted of solvent A (water plus 10 mM tetrabutylammonium bromide) and solvent B (acetonitrile) with a gradient of 90% solvent A at 0 min changing to 95% solvent B over 6 min, maintained for 1.5 min, then reverting to 90% solvent A over 1.6 min. The area of the parent in prodrug at 5h time point was divided by the area of the parent in prodrug at 0 h time point, to generate the % claimed parent ratio, which are summarized in Table 2 for GI Tract stability.

[2] = system: HIV-1 (H9/IIIB strain); test: Multiple round HIV-1 infection assay (Viking assay) in MT4-GFP cells; type: cell-based; settings: MT4-GFP cells infected with HIV-1 H9/IIIB, inhibition of reproductive ratio R0
Method: Assessing Antiviral Potency in a Multiple Round HIV-1 Infection Assay (Viking Assay)
The antiviral activity of the tenofovir prodrugs of the Examples herein was assessed in an assay that measures the rate of replication of HIV in cell culture, termed the Viking assay (Viral KINetics in Green cells) and performed as follows. HIV-1 replication was monitored using MT4-gag-GFP clone D3 (hereafter designated MT4-GFP), which are MT-4 cells modified to harbor a GFP reporter gene, the expression of which is dependent on the HIV-1 expressed proteins tat and rev. Productive infection of an MT4-GFP cell with HIV-1 results in GFP expression approximately 24 h post-infection. MT4-GFP cells were maintained at 37° C./5% CO2/90% relative humidity in RPMI 1640 supplemented with 10% fetal bovine serum, 100 μ/ml penicillin/streptomycin, and 400 μg/ml G418 to maintain the reporter gene. For infections, MT4-GFP cells were placed in the same medium lacking G418 and infected overnight with HIV-1 (H9/IIIB strain) virus at an approximate multiplicity of infection of 0.01 in the same incubation conditions. Cells were then washed and re-suspended in either RPMI 1640 supplemented with 10% or 50% normal human serum (NFIS) at 1.6×10^5 cells/mL (10% NHS or 50% NHS, respectively). Compound plates were prepared by dispensing compounds dissolved in DMSO into wells of 384 well poly-D -lysine-coated plates (0.2 μl/well) using an ECHO acoustic dispenser. Each compound was tested in a 10-point serial 3-fold dilution (typical final concentrations: 8.4 μM-0.42 nM). Controls included no inhibitor (DMSO only) and a combination of three antiviral agents (efavirenz, indinavir, an in-house integrase strand transfer inhibitor at final concentrations of 4 μM each). Cells were added (50 μL/well) to compound plates and the infected cells were maintained at 37° C./5% CO2/90% relative humidity.
infected cells were quantified at two time points, ˜48 h and ˜72 h post -infection, by counting the number of green cells in each well using an Acumen eX3 scanner. The increase in the number of green cells over ˜24 h period gives the reproductive ratio, R0, which is typically 5-15 and has been shown experimentally to be in logarithmic phase (data not shown). Inhibition of R0 is calculated for each well, and IC50s determined by non-linear 4-parameter curve fitting.

[3] = 10% normal human serum, read-out: Viking, IC50 (10% NHS)
[4] = 50% normal human serum, read-out: Viking, IC50 (50% NHS)
[5] = Human immunodeficiency virus 1, IIIB, 10% normal human serum, read-out: Viking, IC50 (10% NHS)
[6] = Human immunodeficiency virus 1, IIIB, 50% normal human serum, read-out: Viking, IC50 (50% NHS)

Row | GI Tract stability [1] [%] | Compound | IC50 [2, 3] [nM] | IC50 [2, 4] [nM] | IC50 [2, 5] [nM] | IC50 [2, 6] [nM]
1 | 91.31 | CC(C)OC(=O)[C@H](C)OP(=O)(CO[C@H](C)Cn1cnc2c(N)ncnc21)NC(C)(C)C(=O)OC1CCCC1 (single isomer, unassigned) [Example 18B] | 2.69 | 8.77 | – | –
2 | 100.00 | CCCCCOC(=O)C(C)(C)NP(=O)(CO[C@H](C)Cn1cnc2c(N)ncnc21)O[C@@H](C)C(=O)OC1CCCC1 (single isomer, unassigned) [Example 19B] | 3.01 | 9.93 | – | –
3 | 7.19 | CC(C)OC(=O)[C@@H](C)OP(=O)(CO[C@H](C)Cn1cnc2c(N)ncnc21)NC(C)(C)C(=O)OC(C)C (stereo partly drawn) [Example 20, Isopropyl 2-((((((R)-1-(6-amino-9H-purin-9-yl)propan-2-yl)oxy)methyl)(((R)-1-isopropoxy-1-oxopropan-2-yl)oxy)phosphoryl)amino)-2-methylpropanoate] | – | – | 21 | 97
4 | 99.36 | CCCOC(=O)C(C)(C)NP(=O)(CO[C@H](C)Cn1cnc2c(N)ncnc21)OCC(=O)OC(C)C (stereo partly drawn) [Example 21, Propyl 2-((((((R)-1-(6-amino-9H-purin-9-yl)propan-2-yl)oxy)methyl)(2-isopropoxy-2-oxoethoxy)phosphoryl)amino)-2-methylpropanoate] | – | – | 6.15 | 12
5 | 79.24 | CCCOC(=O)C(C)(C)NP(=O)(CO[C@H](C)Cn1cnc2c(N)ncnc21)O[C@@H](C)C(=O)OC(C)C (stereo partly drawn) [Example 22, Propyl 2-((((((R)-1-(6-amino-9H-purin-9-yl)propan-2-yl)oxy)methyl)(((S)-1-isopropoxy-1-oxopropan-2-yl)oxy)phosphoryl)amino)-2-methylpropanoate] | – | – | 4.65 | 17.7
6 | 4.28 | CCCOC(=O)C(C)(C)NP(=O)(CO[C@H](C)Cn1cnc2c(N)ncnc21)O[C@H](C)C(=O)OC(C)C (stereo partly drawn) [Example 23, Propyl 2-((((((R)-1-(6-amino-9H-purin-9-yl)propan-2-yl)oxy)methyl)(((R)-1-isopropoxy-1-oxopropan-2-yl)oxy)phosphoryl)amino)-2-methylpropanoate] | – | – | 2.67 | 8.19
7 | 98.30 | CCCCOC(=O)C(C)(C)NP(=O)(CO[C@H](C)Cn1cnc2c(N)ncnc21)OCC(=O)OC(C)C (stereo partly drawn) [Example 24, Butyl 2-((((((R)-1-(6-amino-9H-purin-9-yl)propan-2-yl)oxy)methyl)(2-isopropoxy-2-oxoethoxy)phosphoryl)amino)-2-methylpropanoate] | – | – | 4.78 | 27.8
8 | 79.61 | CCCCOC(=O)C(C)(C)NP(=O)(CO[C@H](C)Cn1cnc2c(N)ncnc21)O[C@@H](C)C(=O)OC(C)C (stereo partly drawn) [Example 25, Butyl 2-((((((R)-1-(6-amino-9H-purin-9-yl)propan-2-yl)oxy)methyl)(((S)-1-isopropoxy-1-oxopropan-2-yl)oxy)phosphoryl)amino)-2-methylpropanoate] | – | – | 2.44 | 10.5
9 | 9.01 | CCCCOC(=O)C(C)(C)NP(=O)(CO[C@H](C)Cn1cnc2c(N)ncnc21)O[C@H](C)C(=O)OC(C)C (stereo partly drawn) [Example 26, Butyl 2-((((((R)-1-(6-amino-9H-purin-9-yl)propan-2-yl)oxy)methyl)(((R)-1-isopropoxy-1-oxopropan-2-yl)oxy)phosphoryl)amino)-2-methylpropanoate] | – | – | 3.1 | 8.74
10 | 85.48 | CC(C)COC(=O)C(C)(C)NP(=O)(CO[C@H](C)Cn1cnc2c(N)ncnc21)O[C@@H](C)C(=O)OC(C)C (stereo partly drawn) [Example 31, Isobutyl 2-((((((R)-1-(6-amino-9H-purin-9-yl)propan-2-yl)oxy)methyl)(((S)-1-isopropoxy-1-oxopropan-2-yl)oxy)phosphoryl)amino)-2-methylpropanoate] | – | – | 2.39 | 7.57
11 | 26.96 | CCCCCCOC(=O)C(C)(C)NP(=O)(CO[C@H](C)Cn1cnc2c(N)ncnc21)O[C@@H](Cc1ccccc1)C(=O)OC(C)C (stereo partly drawn) [Example 33, Hexyl 2-((((((R)-1-(6-amino-9H-purin-9-yl)propan-2-yl)oxy)methyl)(((S)-1-isopropoxy-1-oxo-3-phenylpropan-2-yl)oxy)phosphoryl)amino)-2-methylpropanoate] | – | – | 1.69 | 5.06
12 | 88.87 | CCCCCOC(=O)C(C)(C)NP(=O)(CO[C@H](C)Cn1cnc2c(N)ncnc21)OCC(=O)OC1CCCC1 (stereo partly drawn) [Example 36, Pentyl 2-((((((R)-1-(6-amino-9H-purin-9-yl)propan-2-yl)oxy)methyl)(2-(cyclopentyloxy)-2-oxoethoxy)phosphoryl)amino)-2-methylpropanoate] | – | – | 2.39 | 6.04
13 | 96.64 | CCCOC(=O)C(C)(C)NP(=O)(CO[C@H](C)Cn1cnc2c(N)ncnc21)OCC(=O)OC1CCCC1 (stereo partly drawn) [Example 38, Propyl 2-((((((R)-1-(6-amino-9H-purin-9-yl)propan-2-yl)oxy)methyl)(2-(cyclopentyloxy)-2-oxoethoxy)phosphoryl)amino)-2-methylpropanoate] | – | – | 2.68 | 6.26
14 | 58.50 | CC(C)OC(=O)[C@H](C)OP(=O)(CO[C@H](C)Cn1cnc2c(N)ncnc21)NC(C)(C)C(=O)OCc1ccccc1 (stereo partly drawn) [Example 41, Benzyl 2-((((((R)-1-(6-amino-9H-purin-9-yl)propan-2-yl)oxy)methyl)(((S)-1-isopropoxy-1-oxopropan-2-yl)oxy)phosphoryl)amino)-2-methylpropanoate] | – | – | 2.87 | 12.5
15 | 99.44 | CC(C)OC(=O)COP(=O)(CO[C@H](C)Cn1cnc2c(N)ncnc21)NC1(C(=O)OC(C)C)CCCC1 (stereo partly drawn) [Example 45, Isopropyl 1-((((((R)-1-(6-amino-9H-purin-9-yl)propan-2-yl)oxy)methyl)(2-isopropoxy-2-oxoethoxy)phosphoryl)amino) cyclopentane-1-carboxylate] | – | – | 15.6 | 62.6
16 | 98.18 | CC(C)OC(=O)COP(=O)(CO[C@H](C)Cn1cnc2c(N)ncnc21)NC1(C(=O)OC(C)C)CC1 (stereo partly drawn) [Example 46, Isopropyl 1-((((((R)-1-(6-amino-9H-purin-9-yl)propan-2-yl)oxy)methyl)(2-isopropoxy-2-oxoethoxy)phosphoryl)amino) cyclopropane-1-carboxylate] | – | – | 386 | 703
